The subject of assay [1] is Scenedesmus acutus. As to the kind of experiment: Algae production in 800 mL bioreactors with different nitrogen sources / CO2:NH3 mole ratios. As to conditions: constant gas sparging, nitrogen source compared, no unit in Table 8 (FIG. 33: productivity g/L/day). It is filed as cell-based. How it is done:
To Examine the effect CO2:NH3 mole ratios on Scenedesmus acutus culture health and productivity, experiments were conducted in 800 mL bioreactors with constant gas sparging and different CO2:NH3 mole ratios (ranging from 7:1 up to 18:1) (FIG. 33). The “cycles” indicated in FIG. 33 refer to growth cycles of algae. In this regard, each bioreactor is normally inoculated with algae at a low concentration (e.g., 0.1 g/LO and the algae are allowed to grow until a concentration of 1 g/L is obtained. At this point, the algae are harvested until a concentration of 0.1 g/L is left in the bioreactor (with the addition of fresh nutrients and water). The algae are allowed to grow again until a concentration of 1 g/L is again reached, followed by harvesting. Each period of growth up to harvesting is characterized as a growth cycle.

The test system of assay [2] is Scenedesmus acutus. As to conditions: same molar N concentration; 3% CO2; 21 days; n=3. How it is done: In parallel, an experiment was performed using urea as a control (FIG. 13, tubes 1-3).
Experiments were conducted in a temperature controlled (20-27° C.) 10 L tubular photobioreactor system (FIG. 13). An artificial light system set to a 16:8 light/dark cycle (T5 cool white fluorescent bulbs) delivered 500 micromole m^−2 s^−1 PAR of photoactive radiation. CO2 was delivered as 3% CO2/nitrogen balance from gas cylinders. The experiments ran for 21 days.
Three times a week pH, UV-vis absorbance and dry mass measurements were made.

For the compound `NC(N)=O` [Urea, urea], in the assay with Scenedesmus acutus [1], the growth rate is on record as 0.11 ± 0.04. For `N.N.O=C(O)O` [(NH4)2CO3, ammonium carbonate], in the assay on Scenedesmus acutus [2], the “algae growth rates by dry mass measurements versus urea control” value is “significantly higher than for the control” and the “culture productivity by UV-vis absorbance at 560 nm versus urea control” value is listed as “significantly more productive than the control”. Regarding `O=[N+]([O-])[O-].[Na+]` [NaNO3], in the assay with Scenedesmus acutus [1], the growth rate stood at 0.13 ± 0.05.

Values taken from US12515170B2, “CO2 capture and utilization system and method” (University of Kentucky Research Foundation, priority 2021, dated 2026).
